# According to US9968573B2, “Endoprosthesis having and active substance coating” (HEMOTEQ AG, priority 2011, dated 2018):
# Like-named read-outs stand apart in the source and are kept apart here.
# Tests used:
# L929 cell line = experiment: In vitro cytotoxicity, growth inhibition of L929 cell line; format: cell-based; settings: 68-72 h
# Experimental: The cytotoxic effect was tested on the growth inhibition of L929 cell line after incubation period of 68-72 h for 6 different concentrations according to relevant, valid DIN and ISO standards. DMEM 10% FCS was used as a negative control and the positive control was 5% DMSO in DMEM 10% FCS
# [1] = system: partially resistant Staphylococcus aureus strains; settings: gentamicin as a pure substance (Alt et al., 2004); cited from earlier work
# L929 cells = settings: Ti-Cylinder, rough surface, 24 h extract, L929 68 h
# Experimental: This allows a conclusion on the proliferation of the cells during incubation.
# [2] = system: partially resistant Staphylococcus aureus strains; settings: conversion of literature MIC to gentamicin pantothenate per cm^2
# Experimental: For this purpose, coarse-blasted titanium cylinders were coated by pipetting with different amounts of ethanolic gentamicin-5-pantothenate solution and after drying the coating mass was determined by weighing. The coated titanium tubes were then γ-sterilized.
# Approximate values for the upper limit and lower limit of the amount of coating on the test specimens were derived using data already known to cytotoxicity of gentamicin as a pure substance. […] The upper limit of the samples was determined on the basis of model calculations in combination with experimentally specifically determined data of cytotoxicity of gentamicin sulfate.
# [3] = system: Staphylococcus aureus (ATCC 6538); settings: Ti-Cylinder, rough surface
# Experimental: Then, the minimum inhibitory concentration (MIC) for Staphylococcus aureus (ATCC 6538) is determined over a serial dilution series according to DIN 58940 (Part 7).
compound,measurement,setting,value
CCCCCCCCCCCCCCCC(=O)O [palmitic acid],GI (growth inhibition of the cell line L929),"L929 cell line; c 0.005 mg/mL, n = 3, solvent 0.5% ethanol",2%
same,GI (growth inhibition of the cell line L929),"L929 cell line; c 0.01 mg/mL, n = 3, solvent 0.5% ethanol",5%
same,GI (growth inhibition of the cell line L929),"L929 cell line; c 0.02 mg/mL, n = 3, solvent 0.5% ethanol",8%
same,GI (growth inhibition of the cell line L929),"L929 cell line; c 0.03 mg/mL, n = 3, solvent 0.5% ethanol",17%
same,GI (growth inhibition of the cell line L929),"L929 cell line; c 0.04 mg/mL, n = 3, solvent 0.5% ethanol",22%
same,GI (growth inhibition of the cell line L929),"L929 cell line; c 0.05 mg/mL, n = 3, solvent 0.5% ethanol",30%
gentamicin,minimum inhibitory concentration,[1],64 µg/mL
O=C(O)c1ccccc1 [benzoic acid],GI (growth inhibition of the cell line L929),"L929 cell line; c 0.3 mg/mL, n = 3",10%
same,GI (growth inhibition of the cell line L929),"L929 cell line; c 0.6 mg/mL, n = 3",20%
same,GI (growth inhibition of the cell line L929),"L929 cell line; c 0.9 mg/mL, n = 3",35%
same,GI (growth inhibition of the cell line L929),"L929 cell line; c 1.5 mg/mL, n = 3",50%
same,GI (growth inhibition of the cell line L929),"L929 cell line; c 2.1 mg/mL, n = 3",64%
same,GI (growth inhibition of the cell line L929),"L929 cell line; c 3.0 mg/mL, n = 3",77%
Gentamicin-Penta-Pantothenate,Growth Inhibition,L929 cells; 700 μg/cm^2,23%
same,Growth Inhibition,L929 cells; 800 μg/cm^2,18%
same,Growth Inhibition,L929 cells; 900 μg/cm^2,20%
same,mathematically required minimum dose (lower limit),[2],28 μg/cm^2
same,calculated MIC,[3]; 20 μg/cm^2,50 µg/mL
same,calculated MIC,[3]; 50 μg/cm^2,62.5 µg/mL
same,calculated MIC,[3]; 100 μg/cm^2,31.25 µg/mL
gentamicin sulfate,GI (growth inhibition of the cell line L929),"L929 cell line; c 0.3 mg/mL, n = 3",4%
same,GI (growth inhibition of the cell line L929),"L929 cell line; c 0.6 mg/mL, n = 3",8%
same,GI (growth inhibition of the cell line L929),"L929 cell line; c 1.2 mg/mL, n = 3",12%
same,GI (growth inhibition of the cell line L929),"L929 cell line; c 1.8 mg/mL, n = 3",12%
same,GI (growth inhibition of the cell line L929),"L929 cell line; c 2.4 mg/mL, n = 3",22%
same,GI (growth inhibition of the cell line L929),"L929 cell line; c 3.0 mg/mL, n = 3",29%
O=C(O)c1ccccc1O [salicylic acid],GI (growth inhibition of the cell line L929),"L929 cell line; c 0.1 mg/mL, n = 3",16%
same,GI (growth inhibition of the cell line L929),"L929 cell line; c 0.3 mg/mL, n = 3",19%
same,GI (growth inhibition of the cell line L929),"L929 cell line; c 0.5 mg/mL, n = 3",42%
same,GI (growth inhibition of the cell line L929),"L929 cell line; c 0.8 mg/mL, n = 3",54%
same,GI (growth inhibition of the cell line L929),"L929 cell line; c 1.1 mg/mL, n = 3",67%
same,GI (growth inhibition of the cell line L929),"L929 cell line; c 1.3 mg/mL, n = 3",74%
calcium pantothenate [Ca pantothenate],GI (growth inhibition of the cell line L929),"L929 cell line; c 0.3 mg/mL, n = 3",0%
same,GI (growth inhibition of the cell line L929),"L929 cell line; c 0.6 mg/mL, n = 3",0%
same,GI (growth inhibition of the cell line L929),"L929 cell line; c 1.2 mg/mL, n = 3",4%
same,GI (growth inhibition of the cell line L929),"L929 cell line; c 1.8 mg/mL, n = 3",7%
same,GI (growth inhibition of the cell line L929),"L929 cell line; c 2.4 mg/mL, n = 3",1%
same,GI (growth inhibition of the cell line L929),"L929 cell line; c 3.0 mg/mL, n = 3",2%
